This series can be described thus: Reactive metabolite identification (glutathione adducts). To be noted: for % GSH-adduct (+NADPH, +GSH) relative to parent (−NADPH, −GSH): human liver microsomes, 30 μM, 60 min. It counts as in vitro ADME, human. As to the method:
Reactive Metabolite Identification
In vitro determination of reactive metabolite formation for small molecules by detection of glutathione adducts formed in vitro in incubations with human liver microsomes fortified with NADPH and glutathione.
Methods: The metabolism of small molecules (30 μM) for glutathione adduct formation was assessed in incubations (200 μL volume, […], 60 min incubation time) with liver microsomes from human (1 mg/mL protein) conducted in potassium phosphate buffer (0.1 M, pH 7.4) for 1 h at 37° C. in a 96-well plate (2 mL well volume) and were performed in the absence of NADPH (used as a negative control) and in the presence of NADPH (1 mM) and glutathione (GSH, 10 mM). Incubations with liver microsomes were performed in a shaking water bath incubator with slow horizontal shaking (30 rpm). To obtain 30 μM incubation concentration of a compound, a 3 mM substrate stock solution in DMSO was used. Final incubation mixtures contained 148 μL of potassium phosphate buffer, 10 μL of liver microsome solution (20 mg protein/mL), 2 μL of the 3 mM substrate solution and where incubations were initiated by the addition of 40 μL of NADPH solution (5 mM dissolved in potassium phosphate buffer). Non-NADPH containing incubations were supplemented with 40 μL of potassium phosphate buffer. Post-incubation, reactions were terminated by adding an equal volume of acetonitrile containing 20 nM carbamazepine internal standard and 3% formic acid. Quenched samples then were centrifuged (4,600 rpm, 4° C., 10-min) after which the supernatants were transferred to a 96-well LC-MS sample analysis plate and diluted with one volume equivalent of HPLC-grade water, and then heat sealed with aluminum foil prior to analysis by liquid chromatography/mass spectrometry (LC-MS/MS).
Analyte identification: The LC-MS/MS detection (with in-line UV detection at 280 nm) of test compounds and potential GSH-adducts was focused on extracting selected ion chromatographic profiles using the protonated molecular ion MH^+ m/z for parent to 4 decimal places, and corresponding protonated molecular ions of predicted GSH-adduct metabolites (m/z MH^+ parent+305.0681 amu) using Xcalibur software (version 2.1.0, Thermo Fisher Scientific, Waltham, MA). Relative GSH-adduct abundance in vitro in liver microsome extracts was assessed using the LC/UV absorbance at 280 nm peak area ratio obtained by using Xcalibur software (version 2.1.0) between the detected GSH-adducts from NADPH- and GSH-fortified incubation extracts and the corresponding LC/UV peak area of the parent compound from minus NADPH containing incubation extracts. The extent of GSH-adduct formation was determined by LC-MS/MS analysis with in-line LC-UV detection at 280 nm by dividing the glutathione-adduct LC/UV peak area by the LC/UV peak area of the corresponding parent HCM-1 NG analog determined from analysis of control (-NAPDH, -GSH) incubations extracts.
Materials: Pooled male human (HLM, 50 donors) liver microsomes were obtained from Bioreclamation IVT (Baltimore, MD). Glutathione (GSH) and NADPH were purchased from Sigma Chemical Co. (St. Louis, MO). All solvents used for liquid chromatography-tandem mass spectrometry (LC-MS/MS) analyses were of chromatographic grade.
LC-MS Conditions: Extracts from incubations with liver microsomes and hepatocytes were characterized by LC-MS and LC-MS/MS on a Thermo Electron LTQ Orbitrap XL mass spectrometer coupled with a Dionex UltiMate 3000 UHPLC containing in-line diode array detection and an OAS-3300TXRS Autosampler (40 μL injection volume). Electrospray ionization (ESI) was employed in the positive ion mode with the needle potential held at 5.01 kV, a sheath flow rate of 35.02, aux flow rate of 9.99, a current of 2.6 uA, a capillary temperature of 325° C., and a capillary voltage of 15.99. Vacuum conditions used were an ion gauge pressure used was 2.33×10^−5 Torr and a convection gauge pressure of 0.90 Torr. […]
In general terms: Microsomes from liver hold many membrane-bound enzymes, among them those of drug oxidation.

On to `O=c1[nH]c2c(c(=O)n1C1CCOCC1)CC(F)(F)[C@H](c1cccc(F)c1)N2` [Compound C-1, (S)-6,6-difluoro-7-(3-fluorophenyl)-3-(tetrahydro-2H-pyran-4-yl)-5,6,7,8-tetrahydropyrido[2,3-d]pyrimidine-2,4(1H,3H)-dione, reference compound], for which the “% GSH-adduct (+NADPH, +GSH) relative to parent (−NADPH, −GSH)” value is listed as “Not Detected”.
Take `Cc1ccc(F)c([C@@H]2Nc3[nH]c(=O)n(C4CCOCC4)c(=O)c3C[C@@H]2F)c1` [Compound 3, (6S,7S)-6-fluoro-7-(2-fluoro-5-methylphenyl)-3-(tetrahydro-2H-pyran-4-yl)-5,6,7,8-tetrahydropyrido[2,3-d]pyrimidine-2, 4 (1H, 3H)-dione]: the “% GSH-adduct (+NADPH, +GSH) relative to parent (−NADPH, −GSH)” value is reported as “Not Detected”. In addition, the “Glutathione Adduct Detection in Human Liver Microsome Incubations (single measurement)” value (single measurement) is “Not Detected”. In addition, under “triple measurements”, the “Glutathione Adduct Detection in Human Liver Microsome Incubations, Average (triple measurements)” value is listed as “Not Detected”.
